In brackets after ≈: the same amount, converted by molar mass. Entries after “also recorded” stand apart in the source; their conditions may differ.
Key:
[1] = test system: platelet aggregation (AA); experiment: Inhibitory action against platelet aggregation, inducer arachidonic acid (AA); assay type: cell-based; details: for IC50: Oryctolagus cuniculus, Platelet, AA 150 μM, rabbit PRP
Experimental: (§1) Inhibitory Action against Platelet Aggregation:
(§2) (1) Materials and Method:
(§3) The sample is tested after dissolved in dimethyl sulfoxide. The preparation is conducted so as to make the final concentration of the solvent 1%. Dimethyl sulfoxide of the same concentration is used as a control. As to inducers for platelet aggregation, ADP (final concentration: 5 μm), AA (arachidonic acid) (final concentration: 150 μM) and collagen (final concentration: 10 μg/ml) are used.
(§4) (2) Preparation of platelet:
(§5) Blood is taken from total neck artery of male rabbits of 2.0-2.5 kg body weight. To the blood is added 1/10 volume of 3.8% sodium citrate solution, the mixture is gently stirred, centrifuged 1300×g for 2 minutes, and the resulting supernatant liquid is used as plasma with abundant platelet (hereinafter abbreviated as PRP). The precipitate is further centrifuged at 1600×g for 10 minutes and the resulting supernatant liquid is used as plasma with poor platelet (hereinafter abbreviated as PPP).
(§6) (3) Method for Measuring Aggregation Power:
(§7) A measuring apparatus for platelet aggregation is used and the changes in absorbancy by the aggregation with an elapse of time are recorded.
(§8) Thus, 200 microliters of PRP is taken, its difference between PPP is adjusted to a certain value, then 25 microliters of control solution or test solution is added, the mixture is stirred (1000 rpm) for 1 minutes, 25 microliters of aggregation inducer is added, and the changes in absorbancy are recorded. The inhibitory ratio is calculated from the following expression from the maximum aggregation ratio of the control (A in %) and that of the test solution (B in %): [formula]
(§9) Inhibitory ratios with varied test solution concentrations are calculated and the IC50 (50% inhibitory concentration) is calculated therefrom.
as §3, with “μM),” for “μm),”
as §5, with “citric acid” for “sodium citrate”
as §8, with “minute,” for “minutes,”

[2] = test system: platelet aggregation (collagen); experiment: Inhibitory action against platelet aggregation, inducer collagen; assay type: cell-based; details: for IC50: Oryctolagus cuniculus, Platelet, collagen 10 μg/ml, rabbit PRP
Experimental: as §1, §2, §3, §4
Blood is taken from total neck artery of male rabbits of 2.0-2.5 kg body weight. […] The precipitate is further centrifuged at 1600×g for 10 minutes and the resulting supernatant liquid is used as plasma with poor platelet (hereinafter abbreviated as PPP).
as §6, §7, §8
as §3, with “μM),” for “μm),”
as §5, with “citric acid” for “sodium citrate”
as §8, with “minute,” for “minutes,”

[3] = test system: platelet aggregation (ADP); experiment: Inhibitory action against platelet aggregation, inducer ADP; assay type: cell-based; details: for IC50: Oryctolagus cuniculus, Platelet, ADP 5 μM, rabbit PRP
Experimental: as §1, §2, §3, §4, §5, §6, §7, §8, §9
as §3, with “μM),” for “μm),”
as §5, with “citric acid” for “sodium citrate”
as §8, with “minute,” for “minutes,”

Solubility = assay type: physicochemical; details: qualitative, in named solvents
[4] = Table 2, rabbit PRP, listed as E4
[5] = Table 1, rabbit PRP, listed as B4
[6] = Table 2, rabbit PRP, listed as E3
[7] = Table 1, rabbit PRP, listed as A3
[8] = Table 1, rabbit PRP, listed as BT4
[9] = Table 2, rabbit PRP, listed as CB3
[10] = Table 1, rabbit PRP, listed as A4
[11] = Table 2, rabbit PRP, listed as CB4
[12] = Table 2, rabbit PRP, listed as M3
[13] = Table 1, rabbit PRP, listed as BT3
[14] = Table 1, rabbit PRP, listed as BT1
[15] = Table 1, rabbit PRP, listed as B3
[16] = Table 2, rabbit PRP, listed as M4
[17] = Table 1, rabbit PRP, listed as BT2

CCOC1CCC(OC2CCC(OC3CCC(=O)C(C)O3)C(C)O2)C(C)O1 (stereo not shown) [SEN-366-E4]
IC50 AA 150 μM [1, 4]: 65.0 µg/mL (≈ 168 µM)
IC50 Collagen 10 μg/ml [2, 4]: 16.5 µg/mL (≈ 42.7 µM)
IC50 ADP 5 μM ([3]; Table 2, rabbit PRP): > 100 µg/mL

CC1OC(OC2CCC(OC3CCC(OC(=O)c4ccccc4)OC3C)OC2C)CCC1=O (stereo not shown) [SEN-366-B4]
IC50 AA 150 μM [1, 5]: 1.2 µg/mL (≈ 2.59 µM)
IC50 Collagen 10 μg/ml [2, 5]: 2.9 µg/mL (≈ 6.27 µM)
IC50 ADP 5 μM [3, 5]: 6.5 µg/mL (≈ 14.1 µM)

CCOC1CCC(OC2CCC(OC3C=CC(=O)C(C)O3)C(C)O2)C(C)O1 (stereo not shown) [SEN-366-E3]
IC50 AA 150 μM [1, 6]: 14.0 µg/mL (≈ 36.4 µM)
IC50 Collagen 10 μg/ml [2, 6]: 4.4 µg/mL (≈ 11.4 µM)
IC50 ADP 5 μM [3, 6]: 12.4 µg/mL (≈ 32.3 µM)

CC1OC(OC2CCC(OC3CCC(OC(=O)c4ccccc4)OC3C)OC2C)CCC1=O (stereo not shown) [SEN-366-B2]
IC50 ([1]; Table 1): 1.6 µg/mL (≈ 3.46 µM)
IC50 ([2]; Table 1): 1.7 µg/mL (≈ 3.68 µM)
IC50 ([3]; Table 1): 5.7 µg/mL (≈ 12.3 µM)

CC(=O)OC1CCC(OC2CCC(OC3C=CC(=O)C(C)O3)C(C)O2)C(C)O1 (stereo not shown) [SEN-366-A3]
IC50 AA 150 μM [1, 7]: 1.6 µg/mL (≈ 4.02 µM)
IC50 Collagen 10 μg/ml [2, 7]: 0.47 µg/mL (≈ 1.18 µM)
IC50 ADP 5 μM [3, 7]: 0.44 µg/mL (≈ 1.1 µM)

CC(=O)OC1CCC(OC2CCC(OC3CCC(=O)C(C)O3)C(C)O2)C(C)O1 (stereo not shown) [SEN-366-A2]
IC50 ([1]; Table 1): 6 µg/mL (≈ 15 µM)
IC50 ([2]; Table 1): 0.54 µg/mL (≈ 1.35 µM)
IC50 ADP 5 μM ([3]; Table 1, rabbit PRP, listed as A2): 1.6 µg/mL (≈ 4 µM)

CCCC(=O)OC1CCC(OC2CCC(OC3CCC(=O)C(C)O3)C(C)O2)C(C)O1 (stereo not shown) [SEN-366-BT4]
IC50 AA 150 μM [1, 8]: 5.7 µg/mL (≈ 13.3 µM)
IC50 Collagen 10 μg/ml [2, 8]: 1.6 µg/mL (≈ 3.73 µM)
IC50 ADP 5 μM [3, 8]: 5.3 µg/mL (≈ 12.4 µM)

CCOC1CCC(OC2CCC(OC3CCC(=O)C(C)O3)C(C)O2)C(C)O1 (stereo not shown) [SEN-366-E2]
IC50 ([1]; Table 2): 52 µg/mL (≈ 135 µM)
IC50 ([2]; Table 2): 22.1 µg/mL (≈ 57.2 µM)
IC50 ([3]; Table 2): > 100 µg/mL

CC1OC(OC2CCC(OC3CCC(=O)OC3C)OC2C)C=CC1=O (stereo not shown) [SEN-366-L1]
IC50 ([1]; Table 2): 27 µg/mL (≈ 76.2 µM)
IC50 ([2]; Table 2): 5 µg/mL (≈ 14.1 µM)
IC50 ([3]; Table 2): 12 µg/mL (≈ 33.9 µM)

CC1OC(OC2CCC(OC3CCC(OC(=O)c4ccc(Cl)cc4)OC3C)OC2C)C=CC1=O (stereo not shown) [SEN-366-CB3]
IC50 AA 150 μM [1, 9]: 0.68 µg/mL (≈ 1.37 µM)
IC50 Collagen 10 μg/ml [2, 9]: 0.053 µg/mL (≈ 0.107 µM)
IC50 ADP 5 μM [3, 9]: 0.29 µg/mL (≈ 0.586 µM)

CC(=O)OC1CCC(OC2CCC(OC3CCC(=O)C(C)O3)C(C)O2)C(C)O1 (stereo not shown) [SEN-366-A4]
IC50 AA 150 μM [1, 10]: 5.4 µg/mL (≈ 13.5 µM)
IC50 Collagen 10 μg/ml [2, 10]: 0.27 µg/mL (≈ 0.674 µM)
IC50 ADP 5 μM [3, 10]: > 10 µg/mL

CC1OC(OC2CCC(OC3CCC(OC(=O)c4ccc(Cl)cc4)OC3C)OC2C)CCC1=O (stereo not shown) [SEN-366-CB4]
IC50 AA 150 μM [1, 11]: > 5 µg/mL
IC50 Collagen 10 μg/ml [2, 11]: 1.7 µg/mL (≈ 3.42 µM)
IC50 ADP 5 μM [3, 11]: 4.2 µg/mL (≈ 8.45 µM)

COC1CCC(OC2CCC(OC3C=CC(=O)C(C)O3)C(C)O2)C(C)O1 (stereo not shown) [SEN-366-M3]
IC50 AA 150 μM [1, 12]: 25.0 µg/mL (≈ 67.5 µM)
IC50 Collagen 10 μg/ml [2, 12]: 5.2 µg/mL (≈ 14 µM)
IC50 ADP 5 μM [3, 12]: 15.0 µg/mL (≈ 40.5 µM)

CC(=O)OC1CCC(OC2CCC(OC3C=CC(=O)C(C)O3)C(C)O2)C(C)O1 (stereo not shown) [SEN-366-A1]
IC50 ([1]; Table 1): 1.2 µg/mL (≈ 3.01 µM)
IC50 Collagen 10 μg/ml ([2]; Table 1, rabbit PRP, listed as A1): < 0.1 µg/mL
IC50 ([3]; Table 1): 0.22 µg/mL (≈ 0.552 µM)

CCCC(=O)OC1CCC(OC2CCC(OC3C=CC(=O)C(C)O3)C(C)O2)C(C)O1 (stereo not shown) [SEN-366-BT3]
IC50 AA 150 μM [1, 13]: 0.64 µg/mL (≈ 1.5 µM)
IC50 Collagen 10 μg/ml [2, 13]: 0.16 µg/mL (≈ 0.375 µM)
IC50 ADP 5 μM [3, 13]: 0.47 µg/mL (≈ 1.1 µM)

CC1OC(OC2CCC(OC3CCC(OC(=O)c4ccc(Cl)cc4)OC3C)OC2C)CCC1=O (stereo not shown) [SEN-366-CB2]
IC50 ([1]; Table 2): 6.2 µg/mL (≈ 12.5 µM)
IC50 ([2]; Table 2): 1 µg/mL (≈ 2.01 µM)
IC50 ([3]; Table 2): 3.2 µg/mL (≈ 6.44 µM)

CCCC(=O)OC1CCC(OC2CCC(OC3C=CC(=O)C(C)O3)C(C)O2)C(C)O1 (stereo not shown) [SEN-366-BT1]
IC50 AA 150 μM [1, 14]: 1.55 µg/mL (≈ 3.63 µM)
IC50 ([2]; Table 1): 0.17 µg/mL (≈ 0.399 µM)
IC50 ADP 5 μM [3, 14]: 1.1 µg/mL (≈ 2.58 µM)

CC1OC(OC2CCC(OC3CCC(OC(=O)c4ccccc4)OC3C)OC2C)C=CC1=O (stereo not shown) [SEN-366-B3]
IC50 AA 150 μM [1, 15]: 0.55 µg/mL (≈ 1.19 µM)
IC50 Collagen 10 μg/ml [2, 15]: 0.17 µg/mL (≈ 0.369 µM)
IC50 ADP 5 μM [3, 15]: 1.0 µg/mL (≈ 2.17 µM)

CCOC1CCC(OC2CCC(OC3C=CC(=O)C(C)O3)C(C)O2)C(C)O1 (stereo not shown) [SEN-366-E1]
IC50 ([1]; Table 2): 10.3 µg/mL (≈ 26.8 µM)
IC50 Collagen 10 μg/ml ([2]; Table 2, rabbit PRP, listed as E1): 2.0 µg/mL (≈ 5.2 µM)
IC50 ([3]; Table 2): 7.2 µg/mL (≈ 18.7 µM)

COC1CCC(OC2CCC(OC3CCC(=O)C(C)O3)C(C)O2)C(C)O1 (stereo not shown) [SEN-366-M2]
IC50 ([1]; Table 2): 42 µg/mL (≈ 113 µM)
IC50 ([2]; Table 2): 16.3 µg/mL (≈ 43.8 µM)
IC50 ([3]; Table 2): 55 µg/mL (≈ 148 µM)

CC1OC(OC2CCC(OC3CCC(O)OC3C)OC2C)C(O)CC1=O (stereo not shown) [SEN-366-P]
IC50 ([1]; Table 1): 25 µg/mL (≈ 66.8 µM)
IC50 ([2]; Table 1): 1.6 µg/mL (≈ 4.27 µM)
IC50 ([3]; Table 1): 4.4 µg/mL (≈ 11.8 µM)
Solubility (Solubility): Soluble in water, methanol, ethanol, chloroform, acetone and ethyl acetate; also recorded: hardly soluble in petroleum ether and n-hexane

CC1OC(OC2CCC(OC3CCC(OC(=O)c4ccccc4)OC3C)OC2C)C=CC1=O (stereo not shown) [SEN-366-B1]
IC50 ([1]; Table 1): 0.32 µg/mL (≈ 0.695 µM)
IC50 ([2]; Table 1): 0.16 µg/mL (≈ 0.347 µM)
IC50 ([3]; Table 1): 1.1 µg/mL (≈ 2.39 µM)

COC1CCC(OC2CCC(OC3C=CC(=O)C(C)O3)C(C)O2)C(C)O1 (stereo not shown) [SEN-366-M1]
IC50 ([1]; Table 2): 29 µg/mL (≈ 78.3 µM)
IC50 ([2]; Table 2): 5.5 µg/mL (≈ 14.8 µM)
IC50 ([3]; Table 2): 17 µg/mL (≈ 45.9 µM)

COC1CCC(OC2CCC(OC3CCC(=O)C(C)O3)C(C)O2)C(C)O1 (stereo not shown) [SEN-366-M4]
IC50 AA 150 μM [1, 16]: 47.0 µg/mL (≈ 126 µM)
IC50 Collagen 10 μg/ml [2, 16]: 18.0 µg/mL (≈ 48.3 µM)
IC50 ADP 5 μM [3, 16]: 53.0 µg/mL (≈ 142 µM)

CC1OC(OC2CCC(OC3CCC(OC(=O)c4ccc(Cl)cc4)OC3C)OC2C)C=CC1=O (stereo not shown) [SEN-366-CB1]
IC50 ([1]; Table 2): 1.1 µg/mL (≈ 2.22 µM)
IC50 ([2]; Table 2): 0.06 µg/mL (≈ 0.121 µM)
IC50 ([3]; Table 2): 0.3 µg/mL (≈ 0.606 µM)

CC1OC(OC2CCC(O)OC2C)C=CC1=O (stereo not shown) [SEN-366-F0]
IC50 ([1]; Table 3): 3.4 µg/mL (≈ 14 µM)
IC50 ([2]; Table 3): 1.5 µg/mL (≈ 6.19 µM)
IC50 ([3]; Table 3): 9.3 µg/mL (≈ 38.4 µM)

CCCC(=O)OC1CCC(OC2CCC(OC3CCC(=O)C(C)O3)C(C)O2)C(C)O1 (stereo not shown) [SEN-366-BT2]
IC50 AA 150 μM [1, 17]: 2.1 µg/mL (≈ 4.9 µM)
IC50 Collagen 10 μg/ml [2, 17]: 0.53 µg/mL (≈ 1.24 µM)
IC50 ADP 5 μM [3, 17]: 1.35 µg/mL (≈ 3.15 µM)

From patent US4751217A, “Physiologically active substances named SEN-366” (Nippon Shinyaku Co., Ltd., priority 1984, dated 1988)
